We go through eight compounds from ChEMBL document CHEMBL3612061, “Imidazopyridines as a source of biological activity and their pharmacological potentials-Infrared and Raman spectroscopic evidence of their content in pharmaceuticals and plant materials” (Bioorg Med Chem, 2015).

In brackets after ≈: the same amount, converted by molar mass.

A short description of experiment [1]: Cytotoxicity against mouse leukemia cells. It counts as functional, cell-based. The settings on record: Leukemia cell.
Experiment [2] concerns Classical swine fever virus. Put plainly: Antiviral activity against Classical swine fever virus assessed as protection of viral infection by cell based assay. The class given is functional.
A further experiment relates to MCF7. As to the kind of experiment: Cytotoxicity against human MCF7 cells. It counts as functional, cell-based.
Experiment [3] can be described thus: Cytotoxicity against human SKBR3 cells. The class given is functional, cell-based. The settings on record: SK-BR-3.
Another experiment concerns MDA-MB-231. Put plainly: Cytotoxicity against human MDA-MB-231 cells. The class given is functional, cell-based.
In a further experiment the test system is Human respirovirus 3. As to the kind of experiment: Antiviral activity against Parainfluenza type 3 assessed as protection against virus-induced cytopathogenic effect by cell based assay. It counts as functional. The settings on record: read-out: ID50 (the source's name).
In the next experiment the test system is Yellow fever virus. As to the kind of experiment: Antiviral activity against Yellow fever virus assessed as protection against virus-induced cytopathogenic effect by cell based assay. The class given is functional. The note with it: read-out: ID50 (the source's name).
The test system of experiment [4] is Vesicular stomatitis virus. As to the kind of experiment: Antiviral activity against Vesicular stomatitis virus assessed as protection against virus-induced cytopathogenic effect by cell based assay. The class given is functional. The settings on record: read-out: ID50 (the source's name). (Damage to the host cells serves as the signal in cytopathic effect assays.)

In the next experiment the test system is Cerebral cortex. As to the kind of experiment: Inhibition of GABA uptake in rat cerebral cortex. It counts as functional, tissue-based.
Experiment [5] addresses T1, Type-2 angiotensin II receptor (Rattus norvegicus, UniProt P35351).
T1 sequence (P35351 whole entry): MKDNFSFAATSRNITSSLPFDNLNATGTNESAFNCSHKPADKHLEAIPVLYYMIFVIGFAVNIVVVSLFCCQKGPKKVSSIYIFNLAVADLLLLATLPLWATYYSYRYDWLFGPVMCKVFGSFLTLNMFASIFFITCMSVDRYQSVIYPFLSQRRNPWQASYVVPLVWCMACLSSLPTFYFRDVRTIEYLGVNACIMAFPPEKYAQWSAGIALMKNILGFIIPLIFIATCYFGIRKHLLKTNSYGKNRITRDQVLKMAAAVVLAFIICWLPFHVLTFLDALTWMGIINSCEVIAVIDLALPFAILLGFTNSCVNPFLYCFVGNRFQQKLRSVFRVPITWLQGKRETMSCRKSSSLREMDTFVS
As to the kind of experiment: Inhibition of rat AT2 receptor.

In turn, `OC[C@H]1O[C@@H](n2cnc3c(NO)cc(Cl)nc32)[C@H](O)[C@@H]1O` displayed an IC50 in [1] of 900 nM.

In the case of `Brc1ccc(Cn2ccc3nc(-c4ccccc4)nc-3c2)cc1`, the EC50 in [2] is 800 nM.

Regarding `Nc1ncnc2c1ncn2[C@@H]1C=C(CO)[C@@H](O)[C@H]1O` [NEOPLANOCIN A], the IC50 (with MCF7; in experiment [3]; with MDA-MB-231) was below 25000 nM each time.

On to `Nc1nccc2c1ncn2[C@@H]1O[C@H](CO)[C@@H](O)[C@H]1O`, for which the IC50 (in the experiment with MCF7; in experiment [3]; in the experiment on MDA-MB-231) was below 100 nM in each case.

`OC[C@H]1O[C@@H](n2cnc3/c(=N\O)[nH]cnc32)[C@H](O)[C@@H]1O` returned an IC50 in experiment [1] of 900 nM.

With `Nc1nccc2c1ncn2C1C=C(CO)C(O)C1O` (configuration not stated) [3-DEAZANEPLANOCIN A], the IC50 in the experiment with Human respirovirus 3 was 0.02 µg/mL (≈ 0.0763 µM); with MCF7 it was below 250 nM; in [3], below 250 nM; in the experiment with Yellow fever virus, 0.02 µg/mL (≈ 0.0763 µM); in [4], 0.02 µg/mL (≈ 0.0763 µM); in the experiment on MDA-MB-231 it was below 250 nM.

With `O=C(O)C1Cc2[nH]cnc2CN1` (configuration not stated), in the experiment on Cerebral cortex, the IC50 was determined as 270000 nM.

For the compound `COc1ccc(CN2C=NC3CN(C(=O)C(c4ccccc4)c4ccccc4)C(C(=O)O)CC32)cc1C` (configuration not stated), in experiment [5], the IC50 is 34 nM.

A word on the EC50: it is the concentration at which the effect is half-maximal.
